Laboratory results from ChEMBL document CHEMBL1201862, “PubChem BioAssay data set” (2004).
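These data come from cells grown in 96-well plates and exposed to compound for 48 hours at five concentrations. GI50 is the concentration that inhibits growth by half.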 Calls of active or inactive are those of the source. No stated cut-off is given here; in the data, active = GI50 up to about 1.1 µM and inactive = higher.

Legend:
Experiment in all cases: NCI-60 cell line screen, 48 h
MDA-N = system: MDA-N
SK-OV-3 = system: SK-OV-3
K562 = system: K562
M14 = system: M14
ACHN = system: ACHN
DU-145 = system: DU-145
SR = system: SR
HOP-62 = system: HOP-62
TK-10 = system: TK-10
Malme-3M = system: Malme-3M
HL-60 = system: HL-60
CCRF-CEM = system: CCRF-CEM
KM12 = system: KM12
LOX IMVI = system: LOX IMVI
RPMI-8226 = system: RPMI-8226
BT-549 = system: BT-549
NCI-H23 = system: NCI-H23
CAKI-1 = system: CAKI-1
HOP-92 = system: HOP-92
OVCAR-5 = system: OVCAR-5

Measured: GI50

O=C(O)CC(C(=O)O)C1c2ccccc2-c2ccccc21 (stereo not given)
inactive: MDA-N > 100 µM | SK-OV-3 66.8 µM | K562 > 100 µM | M14 > 100 µM | ACHN 92.9 µM | DU-145 17.9 µM | SR 37.5 µM | HOP-62 38.2 µM | TK-10 > 100 µM | Malme-3M 58.6 µM | HL-60 > 100 µM | CCRF-CEM 32.4 µM | KM12 66.8 µM | LOX IMVI 38.5 µM | RPMI-8226 41.1 µM | BT-549 > 100 µM | NCI-H23 92.3 µM | CAKI-1 66.1 µM

OCC1NCC(O)C(O)C1O (stereo not given)
inactive: MDA-N > 100 µM | SK-OV-3 > 100 µM | M14 > 100 µM | HOP-92 > 100 µM | ACHN > 100 µM | DU-145 > 100 µM | SR > 100 µM | HOP-62 > 100 µM | TK-10 > 100 µM | Malme-3M 22.4 µM | HL-60 > 100 µM | CCRF-CEM > 100 µM | KM12 > 100 µM | RPMI-8226 > 100 µM | BT-549 > 100 µM | NCI-H23 > 100 µM | CAKI-1 > 100 µM | OVCAR-5 > 100 µM

Cn1c(=O)c2c(nc3n2CCCC(=O)N3CC(O)CCl)n(C)c1=O (stereo not given)
inactive: MDA-N > 100 µM | SK-OV-3 > 100 µM | K562 > 100 µM | M14 > 100 µM | HOP-92 > 100 µM | ACHN > 100 µM | DU-145 > 100 µM | SR 50.1 µM | HOP-62 > 100 µM | TK-10 > 100 µM | HL-60 > 100 µM | CCRF-CEM > 100 µM | KM12 > 100 µM | LOX IMVI > 100 µM | RPMI-8226 > 100 µM | BT-549 > 100 µM | NCI-H23 > 100 µM | CAKI-1 > 100 µM | OVCAR-5 > 100 µM

O=C1CC2C(=O)c3ccccc3CC2c2ccccc21 (stereo not given)
inactive: MDA-N 36.3 µM | SK-OV-3 > 100 µM | K562 21.3 µM | M14 69.5 µM | HOP-92 16.4 µM | ACHN 30.7 µM | DU-145 50.5 µM | SR 13.8 µM | HOP-62 > 100 µM | TK-10 87.9 µM | Malme-3M 39 µM | HL-60 17.9 µM | KM12 40.6 µM | LOX IMVI 38.5 µM | RPMI-8226 15.2 µM | BT-549 81.8 µM | OVCAR-5 > 100 µM

CCNC(=O)C1CCCN1C(=O)C(CCCN=C(N)N)NC(=O)C(CC(C)C)NC(=O)C(Cc1c[nH]c2ccccc12)NC(=O)C(Cc1ccc(O)cc1)NC(=O)C(CO)NC(=O)C(Cc1c[nH]c2ccccc12)NC(=O)C(Cc1c[nH]cn1)NC(=O)C1CCC(=O)N1 (stereo not given)
inactive: MDA-N > 100 µM | SK-OV-3 > 100 µM | K562 > 100 µM | M14 > 100 µM | HOP-92 > 100 µM | ACHN > 100 µM | DU-145 > 100 µM | SR > 100 µM | HOP-62 > 100 µM | TK-10 > 100 µM | Malme-3M > 100 µM | CCRF-CEM > 100 µM | KM12 > 100 µM | RPMI-8226 > 100 µM | BT-549 > 100 µM | NCI-H23 > 100 µM | CAKI-1 > 100 µM | OVCAR-5 > 100 µM

C/C=C(\C)[C@@H](O)C(=O)O[C@@H]1CC(C(C)(C)O)[C@](C)(CCC(=O)OC)[C@H]2[C@H](OC(=O)[C@H](O)[C@H](C)CC)C[C@]3(C)C(=CC[C@H]3[C@H]3CO[C@H](C=C(C)C)C3)[C@]12C (stereo not given in full)
inactive: MDA-N 20 µM | K562 17.8 µM | M14 18.2 µM | HOP-92 23.3 µM | ACHN 18.1 µM | DU-145 29 µM | SR 14.5 µM | HOP-62 35.3 µM | TK-10 24.2 µM | HL-60 16.7 µM | KM12 24.8 µM | LOX IMVI 17.6 µM | RPMI-8226 15.3 µM | BT-549 18 µM | NCI-H23 18.4 µM | CAKI-1 27.7 µM | OVCAR-5 20.5 µM

O=C(O)c1[nH]c2c([N+](=O)[O-])cc([N+](=O)[O-])cc2c1C(=O)O
inactive: MDA-N 29.9 µM | SK-OV-3 > 100 µM | K562 > 100 µM | M14 56.1 µM | HOP-92 > 100 µM | ACHN > 100 µM | DU-145 > 100 µM | SR 75.5 µM | HOP-62 > 100 µM | TK-10 > 100 µM | Malme-3M > 100 µM | HL-60 > 100 µM | CCRF-CEM > 100 µM | KM12 > 100 µM | LOX IMVI > 100 µM | BT-549 > 100 µM | NCI-H23 > 100 µM | CAKI-1 > 100 µM | OVCAR-5 > 100 µM

CC[C@@H](/C=C\CCC1(C[C@@H](N)CCC=C(C)C)OCCO1)O[Si](C(C)C)(C(C)C)C(C)C
inactive: MDA-N 16.4 µM | SK-OV-3 20 µM | K562 10.8 µM | M14 18.5 µM | HOP-92 14.9 µM | ACHN 18 µM | DU-145 19.8 µM | SR 3.27 µM | HOP-62 22 µM | TK-10 17.1 µM | HL-60 4.28 µM | CCRF-CEM 11.6 µM | KM12 18.1 µM | LOX IMVI 4.97 µM | RPMI-8226 17.9 µM | BT-549 20.1 µM | NCI-H23 21.1 µM | CAKI-1 18.8 µM | OVCAR-5 17.2 µM
